Source: paper PMC8961646, “Fibroblast Activation Protein Specific Optical Imaging in Non-Small Cell Lung Cancer” (Frontiers in Oncology, 2022)
Non-standard residues stand in square brackets, D forms with d. Residues, ends and D or L forms follow the SMILES beside them. *: point of attachment. 5FAM = O=C1OC2(c3ccc(O)cc3Oc3cc(O)ccc32)c2ccc(C(=O)*)cc21; MethylRed = CN(C)c1ccc(/N=N/c2ccccc2C(=O)*)cc1; AEEA = NCCOCCOCC(=O)O

Legend:
Assay type in all cases: biochemical
[1] = biological target: MMP 9 (Homo sapiens, UniProt P14780); experiment: Probe assessment against recombinant MMP panel; settings: recombinant enzyme, n=2 run in triplicate
Sequence of MMP 9 (P14780 94-707): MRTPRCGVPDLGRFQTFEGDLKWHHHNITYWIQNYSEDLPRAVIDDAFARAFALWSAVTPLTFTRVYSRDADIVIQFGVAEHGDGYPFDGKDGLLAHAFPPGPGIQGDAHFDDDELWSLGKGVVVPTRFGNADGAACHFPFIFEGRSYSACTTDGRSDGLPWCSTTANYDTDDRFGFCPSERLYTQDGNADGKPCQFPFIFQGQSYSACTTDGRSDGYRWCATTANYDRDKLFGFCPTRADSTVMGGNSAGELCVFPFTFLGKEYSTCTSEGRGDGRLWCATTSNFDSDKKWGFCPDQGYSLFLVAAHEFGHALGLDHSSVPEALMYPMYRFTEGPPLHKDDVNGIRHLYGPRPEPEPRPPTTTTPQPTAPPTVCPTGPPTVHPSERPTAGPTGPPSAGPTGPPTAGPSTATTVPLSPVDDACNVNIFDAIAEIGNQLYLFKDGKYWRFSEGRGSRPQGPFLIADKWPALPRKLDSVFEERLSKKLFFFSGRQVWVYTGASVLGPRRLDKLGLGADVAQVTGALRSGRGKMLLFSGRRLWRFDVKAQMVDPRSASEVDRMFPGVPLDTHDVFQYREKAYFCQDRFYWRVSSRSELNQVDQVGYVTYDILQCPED

[2] = biological target: T1, rhFAP (Homo sapiens, UniProt Q12884); experiment: Enzyme kinetics with varying concentrations of substrate FAP3 in presence of rhFAP; settings: increasing concentrations of substrate FAP3 with rhFAP; value (SE)
T1 construct: purchased R&D Systems
T1 sequence (Q12884 26-760 limits assumed): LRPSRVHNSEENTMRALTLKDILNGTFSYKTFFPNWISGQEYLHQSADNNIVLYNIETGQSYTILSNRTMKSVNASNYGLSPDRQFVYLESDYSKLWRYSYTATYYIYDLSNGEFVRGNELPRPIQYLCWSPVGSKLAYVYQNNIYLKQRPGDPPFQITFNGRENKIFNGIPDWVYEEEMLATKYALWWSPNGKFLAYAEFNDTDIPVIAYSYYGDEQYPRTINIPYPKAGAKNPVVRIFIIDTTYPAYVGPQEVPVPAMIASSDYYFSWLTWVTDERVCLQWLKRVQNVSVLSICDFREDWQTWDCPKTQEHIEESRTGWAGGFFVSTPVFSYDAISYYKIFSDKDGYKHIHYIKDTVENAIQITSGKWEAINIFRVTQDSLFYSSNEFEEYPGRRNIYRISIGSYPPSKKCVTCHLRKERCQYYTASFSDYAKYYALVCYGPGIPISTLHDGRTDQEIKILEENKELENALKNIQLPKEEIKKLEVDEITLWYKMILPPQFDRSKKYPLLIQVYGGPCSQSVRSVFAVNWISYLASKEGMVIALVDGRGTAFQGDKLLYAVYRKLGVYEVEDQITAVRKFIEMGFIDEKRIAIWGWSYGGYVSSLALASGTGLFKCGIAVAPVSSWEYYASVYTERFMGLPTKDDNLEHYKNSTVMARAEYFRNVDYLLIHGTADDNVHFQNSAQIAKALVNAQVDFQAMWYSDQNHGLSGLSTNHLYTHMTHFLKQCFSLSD
Description: A calibration curve was determined using the FAP3 concentration (C-terminal cleavage fragment) against RFU to calculate the enzyme kinetic data and is shown below.

[3] = biological target: T1, rhFAP; experiment: Probe cleavage by recombinant human FAP (fluorescence plate assay, MALDI confirmation)

CC(C)[C@H](NC(=O)[C@@H](N)CCCCNC(=O)c1ccccc1/N=N/c1ccc(N(C)C)cc1)C(=O)N[C@H](CO)C(=O)N1CCC[C@H]1C(=O)N[C@@H](CC(N)=O)C(=O)N[C@@H](CCC(N)=O)C(=O)NCC(=O)N[C@@H](CCCCNC(=O)c1ccc2c(c1)C(=O)OC21c2ccc(O)cc2Oc2cc(O)ccc21)C(=O)NCCOCCOCC(=O)N[C@H](CCCCN)C(=O)NCCOCCOCC(=O)N[C@H](CCCCN)C(=O)NCCOCCOCC(=O)N[C@H](CCCCN)C(N)=O [FAP3] (H-K(MethylRed)V[dS]PNQGK(5FAM)[AEEA][dK][AEEA][dK][AEEA][dK]-NH2)
Activity with MMP 9 [1]: no activity
Vmax [2]: 109.5 RFU/min
Cleavage of FAP3 by rhFAP confirmed by MALDI ([3]; MALDI-TOF read-out, cleavage post proline): confirming the cleavage
FAP specificity (over PREP) ([3]; probe 5 µM, rhFAP compared with rhPREP, each 0.1 µg/ml): demonstrated FAP specificity
